Laboratory results taken from patent publication US7115380B2, “Applications of peptides derived from the cytoplasmic domain of amyloid precursor protein (APP)” (Centre National de la Recherche Scientifique, priority 1999, dated 2006).
Values belong to the molecule of their own block, whether it stands above or below them. Where a SMILES comes first, the peptide text is derived from it. The star is where a group is joined. Cbz = O=C(OCc1ccccc1)*; CH2F = FC*

Experiments:
[1] = tested on: cortical and corticostriatal neurons; assay: Internalization of peptides into primary cultures of neurons: toxicity, neurite growth, neuronal death; format: cell-based, mouse or rat
Method: (§1) Cortical and corticostriatal neurons are prepared, as described previously (Lafont et al., Development, 1992, 114, 17–29, ), from E14, mouse embryos or from E15, rat embryos.
(§2) Briefly, the dissociated cells are plated out onto polyornithine-coated plastic plates (ELISA-type plates) at a density of 5,000, cells per well, and incubated in a suitable medium supplemented with hormones, proteins and salts.
The internalization conditions are the same as those described in International Application WO 97/12912.
(§3) All the peptides are added to the cells two hours after the latter have been plated out. The internalization is verified by confocal microscopy after immunolabeling (Pmyc) or detection of biotin (Jcasp and its variants).

[2] = tested on: actin cleavage by caspase 3 in neurons; assay: Quantification of actin cleavage by caspase 3 using anti-fractin antibody (FIGS. 4 and 5); format: cell-based, mouse or rat; conditions: for actin cleavage (percentage of fractin-positive neurons): 24 h, triplicate
Method: (§4) For the immunodetection of the fractin or of the p20 subunit of caspase 3 (Pharmingen), the cells are fixed with 4% paraformaldehyde (30 minutes, room temperature), washed three times with PBS and saturated for 1 hour at 37° C. with 10% fetal calf serum (FCS) in PBS containing 0.2% of Triton X 100.
(§5) Purified primary antibodies directed against fractin or p20 are diluted (in PBS-FCS) 2000-fold and 500-fold, respectively, incubated overnight at 4° C. washed three times and incubated with biotinylated anti-rabbit antibodies.
(§6) The detection is carried out using the alkaline phosphatase amplification kit (Vector, France).
(§7) For each condition, 600 to 800 cells are counted three times.
(§8) The statistical analysis is carried out with ANOVA and the Scheffé test.
FIGS. 4 and 5 illustrate the quantification of the actin cleavage by caspase 3 using the anti-fractin antibody, by immunocytochemistry after fixing the cells with paraformaldehyde (F. Yang et al., Am. J. Pathol., 1998, 152, 2, 379–389). The anti-fractin antibody specifically recognizes actin cleaved by caspase 3. The percentage of fractin-positive neurons was determined after 24 h of internalization of the peptides, by counting approximately 1000 cells per well in triplicate.

[3] = tested on: neurons (primary culture); assay: Quantification of DNA cleavage by TUNEL 24 h after internalization of the peptides (FIG. 2); format: cell-based, mouse or rat; conditions: for DNA cleavage (percentage of TUNEL-positive cells): triplicate, p<0.0001
Method: as §1, §2, §3
(§9) The internalization and the intracellular stability of Jcasp, Pmyc and J(Y→D)Casp are identical. The irreversible caspase inhibitors zVAD-fmk (100 μM) and zDEVD-fmk (200 μM) (Calbiochem, France) are added 1 hour before addition of the peptide.
(§10) The apoptotic cells are detected by TUNEL labeling (fluorescein or alkaline phosphatase kits) as described by the supplier (Roche Diagnostics, France).
as §7, §8
Peptide G was internalized at 2 concentrations (1X and 2X) and peptide Gcasp (or Jcasp) was internalized at the 1X concentration, in the presence or absence of the caspase inhibitor zVAD.
Each condition was tested in triplicate. The percentage of positive cells was evaluated after 24 h by counting approximately 1000 cells per well.

[4] = tested on: E15 rat cortical neurones; assay: Cell death by TUNEL in E15 rat cortical neurones (FIG. 3); format: cell-based
Method: as §1, §2, §3, §9, §10, §7, §8
Peptide Jcasp induces neuronal apoptosis. Two hours after plating out onto plates, peptide Jcasp is added to the E15 rat cortical neurones and cell death is evaluated by the TUNEL effect, 24 hours later.

[5] = tested on: p20 subunit of caspase 3 in mouse cortical embryonic neurons; assay: Immunoreactivity for the p20 subunit of caspase 3 (FIGS. 6 and 7); format: cell-based; conditions: inhibitor with peptide Jcasp
Method: as §4, §5, §6, §7, §8
In order to verify that caspase 3 is effectively involved in the apoptosis caused by peptide Jcasp, use is made of the fact that this enzyme (caspase 3) is synthesized in the form of a propetide (37 kDa) which, after stimulation, generates an active subunit of 17–22 kDa (p20).
Immunoreactivity for p20 is examined in mouse cortical embryonic neurons cultured for 24 hours in the presence of several peptides. FIG. 6 illustrates the immunoreactivity for the p20 protein and FIG. 7 quantifies the induction of the p20.

actin cleavage (percentage of fractin-positive neurons) ([2]; 1X): significant increase | actin cleavage (percentage of fractin-positive neurons) ([2]; 2X, p<0.0001): significant increase
Molecule: peptide G: KQYTSIHHG, APP positions 651–659 (SEQ ID NO: 2, Y0 null), tested with Y1 = penetratin SEQ ID NO: 5 (KQIKIWFQNRRMKWKKKQYTSIHHG; listed as Homo sapiens)
effect on neurite growth after internalization ([1]; concentrations lower than one μM): reproduces the effects of the intact C-terminal domain | pro-apoptotic nature after internalization ([1]; internalized into neurons): pro-apoptotic | DNA cleavage (percentage of TUNEL-positive cells) ([3]; concentration 1X): significant increase | DNA cleavage (percentage of TUNEL-positive cells) ([3]; concentration 2X): significant increase

effect on endogenous cleavage of actin by caspases of neurones ([2]; inhibitor alone): inhibits all endogenous cleavage | effect on the peptide-induced increase in actin cleavage ([2]; with G1X, G2X and Gcasp1X, p<0.0001, inhibition not complete): significantly inhibits the increase | effect of caspase inhibitor on peptide-induced increase in DNA cleavage (TUNEL) ([3]; with peptide G or Jcasp): inhibits this increase in cleavage
Molecule: COC(=O)C[C@H](NC(=O)[C@H](C)NC(=O)[C@@H](NC(=O)OCc1ccccc1)C(C)C)C(=O)CF [zVAD-fmk] (Cbz-Val-Ala-Asp(OMe)-CH2F)

Molecule: peptide H: SEQ ID NO: 5 + domain H (NGYENPTYK, SEQ ID NO: 7), APP positions 680–688 (KQIKIWFQNRRMKWKKNGYENPTYK; listed as Homo sapiens)
effect on neurite growth after internalization ([1]; internalization into neurons): no effect

Molecule: peptide E: SEQ ID NO: 5 + domain E (VDAAVTPEE, SEQ ID NO: 6), APP positions 663–671 (KQIKIWFQNRRMKWKKVDAAVTPEE; listed as Homo sapiens)
effect on neurite growth after internalization ([1]; internalization into neurons): no effect

Molecule: COC(=O)CC[C@H](NC(=O)[C@H](CC(=O)OC)NC(=O)OCc1ccccc1)C(=O)N[C@H](C(=O)N[C@@H](CC(=O)OC)C(=O)CF)C(C)C [zDEVD-fmk]
effect on basal cell death (TUNEL) ([4]; inhibitor at 200 μM, added 1 hour before peptide): weak effect | inhibition of DNA fragmentation induced by peptide Jcasp ([4]; inhibitor at 200 μM, Jcasp at 1.2 μM and 2.4 μM): inhibits the DNA fragmentation | effect on actin cleavage induced by peptide Jcasp (FIG. 5) ([2]; inhibitor with peptide Jcasp): inhibits the actin cleavage | effect on activation of p20 by peptide Jcasp [5]: significantly decreases the activation of p20

Molecule: Pmyc: SEQ ID NO: 5 + peptide corresponding to the MYC sequence [EQKLISEED]; no relation to APP (KQIKIWFQNRRMKWKKEQKLISEED; listed as Homo sapiens)
DNA fragmentation / number of TUNEL-positive cells ([4]; 24 hours, concentration not given): no effect
